Compound	melting point [°C]
Br.Cc1cccc(C)c1C(CNC(C)C)COCc1ccccc1F (stereo not drawn)	111
CCCNCC(COCc1ccccc1F)c1c(C)cccc1C.Cl (stereo not drawn)	100
Cc1cccc(C)c1C(CNC1CCCC1)COCc1ccccc1F.Cl (stereo not drawn)	102
Cc1cccc(C)c1C(CNC(C)C)COCc1c(F)cccc1F.Cl (stereo not drawn)	138
Cc1cccc(C)c1C(COCc1c(F)cccc1F)CN(C)C.Cl (stereo not drawn)	144
Cc1cccc(C)c1C(CNCC1CC1)COCc1c(F)cccc1F.Cl (stereo not drawn)	145
Cc1cccc(C)c1C(CNCC1CC1)COCc1c(F)cccc1Cl.Cl (stereo not drawn)	154
Cc1cccc(C)c1COCC(CNCC1CC1)c1c(C)cccc1C.Cl (stereo not drawn)	142
Cc1cccc(C)c1C(CNCC1CC1)COCc1ccccc1F.Cl (stereo not drawn)	101
Cc1cccc(C)c1C(CNCC1CCC1)COCc1ccccc1F.Cl (stereo not drawn)	191
C=CCN(C)CC(c1c(C)cccc1C)C(OC)c1c(F)cccc1F.Cl (stereo not drawn) [11.55]	116

Continued, values first:

melting point [°C]	Compound
128	C=C(C)CN(C)CC(c1c(C)cccc1C)C(OC)c1c(F)cccc1F.O=C(O)C(=O)O (stereo not drawn)
112	C#CCNCC(COCc1ccccc1F)c1c(C)cccc1C.Cl (stereo not drawn)
128	COCCNCC(COCc1c(F)cccc1F)c1c(C)cccc1C.Cl (stereo not drawn)
123	Cc1cccc(C)c1C(CNC(C)C)COCc1ccccc1F.Cl (stereo not drawn)
149	Br.Cc1cccc(C)c1C(CNCC1CCCO1)COCc1c(F)cccc1F (stereo not drawn)
142	CCCNCC(COCc1c(F)cccc1F)c1c(C)cccc1C.Cl (stereo not drawn)
143	Br.CCCN(CCC)CC(COCc1c(F)cccc1F)c1c(C)cccc1C (stereo not drawn)
119	Cc1cccc(C)c1C(CNCC(C)C)COCc1c(F)cccc1F.Cl (stereo not drawn)
130	Cc1cccc(C)c1C(CNC1CCCC1)COCc1c(F)cccc1F.Cl (stereo not drawn)
77	COCCNCC(COCc1ccccc1F)c1c(C)cccc1C.Cl (stereo not drawn)
101	Br.Cc1cccc(C)c1C(CNCC1CC1)COCc1ccccc1F (stereo not drawn)
124	C#CCNCC(COCc1c(F)cccc1F)c1c(C)cccc1C.Cl (stereo not drawn) [8.9]
145	C#CCNCC(COCc1c(F)cccc1F)c1c(C)cccc1C.Cl (stereo not drawn) [8.12]

From US6441237B1, “Substituted 3-phenoxy- and 3-phenylalkyloxy-2-phenyl-propylamines” (Boehringer Ingelheim Pharma KG, priority 1999, dated 2002)
